Data from patent US20110071630A1, “SODIUM CHANNEL BLOCKER DELIVERY SYSTEM WITH SCLERAL LENS” (Boston Foundation for Sight, priority 2009, published 2011).

Assays:
corneal neuropathic pain [1] = experiment: Treatment of corneal neuropathic pain in patients, drug solution in the fluid reservoir of a scleral lens (BOS-P); format: in vivo, human
Procedure: (§1) A patient with well established primary Sjögren's syndrome and severe dry eyes was treated for intense, constant corneal pain using the anesthetic delivery system disclosed herein. Specifically, the patient was treated with bupivacaine and BOS-P devices. The concentration of non-preserved bupivacaine was rapidly titrated using frequent (every 2-5 minutes) drops in the more symptomatic left eye (open label) measuring corneal sensitivity with a Cochet-Bonnet aesthesiometer (with adequate recovery times) until reaching the concentration that avoided any depression of corneal sensitivity. The sub-anesthetic concentration in this patient was determined to be 0.001%. Both BOS-P devices were filled with 0.001% bupivacaine and inserted into the patient's eyes. The patient then left.
The patient was given a vial of 0.01% bupivacaine to dilute 1:10 (e.g., add one drop of 0.01% bupivacaine to nine drops of saline) to fill the reservoir of the left lens prior to inserting it the next morning.
They wore the BOS-P containing 0.001% bupivacaine in their left eye, and the BOS-P containing saline in their right eye unmasked to the patient and doctor, for about 8 hours. […] Corneal sensation in the treated eye was normal. […]

corneal sensation = experiment: Corneal sensitivity measured with a Cochet-Bonnet aesthesiometer; format: in vivo, human
Description: The sub-hypoesthetic dose for a sodium channel blocker or a sodium channel modulator may vary between patients. […] The sub-hypoesthetic dose of a sodium channel blocker or a sodium channel modulator can be determined for an individual patient by selecting a higher starting concentration and gradually reducing the concentration via titration until reaching a sub-hypoesthetic dose as determined by a contact and non-contact esthesiometer. A non-limiting example of a method of determining corneal sensitivity is Cochet-Bonnet aesthesiometry.
As used herein, the phrases “sub-anesthetic dose” and “sub-anesthetic concentration” refer to a dose of a sodium channel blocker or a sodium channel modulator or a sodium channel modulator that is lower than the anesthetic dose. “Sub-anesthetic dose” and “sub-anesthetic concentration” may be used interchangeably. The sub-anesthetic dose of a sodium channel blocker or a sodium channel modulator may vary between patients. The sub-anesthetic dose of a sodium channel blocker or a sodium channel modulator can be determined for an individual patient by selecting a higher starting concentration and gradually reducing the concentration via titration until reaching a sub-anesthetic dose as determined by a contact and non-contact esthesiometer. A non-limiting example of a starting concentration of a sodium channel blocker or a sodium channel modulator is about 0.02%. In some embodiments, the concentration of the sodium channel blocker or a sodium channel modulator may be titrated down to a concentration that avoids any depression of corneal sensitivity. A non-limiting example of a method of determining corneal sensitivity is Cochet-Bonnet aesthesiometry.
as §1
The patient was given a vial of 0.01% bupivacaine to dilute 1:10 (e.g., add one drop of 0.01% bupivacaine to nine drops of saline) to fill the reservoir of the left lens prior to inserting it the next morning. […]

cornea [2] = experiment: Examination of the cornea for adverse effects (fluorescein staining, slit lamp examination, confocal microscopy); format: in vivo, human
Procedure: They wore the BOS-P containing 0.001% bupivacaine in their left eye, and the BOS-P containing saline in their right eye unmasked to the patient and doctor, for about 8 hours. […] Corneal sensation in the treated eye was normal.
The patient returned the following day 2 hours after inserting the scleral lenses containing 0.015% ropivacaine.
A patient suffered from severe corneal neuropathic pain for many years, greatly limiting the patient's quality of life. This disease was refractory to previous treatments. Lacosamide was placed in the fluid reservoir of the device where it remained in contact with the cornea while it was worn (approximately 10 hours/day).

cornea [3] = settings: 0.05% concentration, after photorefractive keratectomy; cited from earlier work
corneal neuropathic pain [4] = experiment: Eye drops without scleral lens for corneal neuropathic pain; format: in vivo, human; settings: Example 5, eye drops 0.5% lacosamide
Procedure: Eye drops containing 0.5% lacosamide were administered to the eyes of two patients and to the an eye of the inventor. […] Therefore, it is believed that lacosamide may be used in eye drops at a concentration of up to 5% to treat corneal neuropathic pain without depressing corneal sensation.

SMILES: CCCN1CCCC[C@H]1C(=O)Nc1c(C)cccc1C [ropivacaine]
- eye pain and photophobia, lenses worn until midnight the previous day (corneal neuropathic pain [1]; Example 3, 0.015% ropivacaine in scleral lenses): total resolution of eye pain and photophobia
- symptoms at examination, 2 hours after inserting lenses (corneal neuropathic pain [1]; Example 3, 0.015% ropivacaine, following day): free of symptoms
- eye pain and photosensitivity following application (corneal neuropathic pain [1]; Example 3, Stevens-Johnson syndrome patient, 0.015% ropivacaine in scleral lenses, first day): rapid mitigation of eye pain and photosensitivity
- eye pain and photophobia at subsequent examinations (corneal neuropathic pain [1]; Example 3, ropivacaine in scleral lenses): significant mitigation of eye pain and photophobia
- corneal sensitivities at subsequent examinations (corneal sensation; in vivo): normal corneal sensitivities
- corneal sensitivity by Cochet-Bonnet aesthesiometer (corneal sensation; in vivo): normal
- adverse effects on the eyes from the treatment (cornea [2]; in vivo): no adverse effects
- treatment-related complications at subsequent examinations (cornea [2]; in vivo): without adverse treatment-related complications

SMILES: CCCCN1CCCCC1C(=O)Nc1c(C)cccc1C (stereo not shown) [bupivacaine]
- eye comfort reported by patient (corneal neuropathic pain [1]; Example 1, next day after both BOS-P devices were filled with 0.001% bupivacaine): more comfortable than they had been in 3 months
- pain reported by patient at day's end (corneal neuropathic pain [1]; Example 1, second day, left lens reservoir filled with non-preserved bupivacaine): virtual absence of pain in either eye
- pain after exposure to glass cleaner or white board marker (corneal neuropathic pain [1]; Example 1, second day, exposure would ordinarily trigger severe pain): little or no pain
- pain reported after about 8 hours of wear (corneal neuropathic pain [1]; Example 1, third day, 0.001% bupivacaine in left BOS-P, saline in right BOS-P): virtually no pain in either eye
- pain, Visual Analog Scale (corneal neuropathic pain [1]; Example 1, third day, on arrival): virtually no pain in either eye
- eye symptoms (photosensitivity, burning pain, inability to read) (corneal neuropathic pain [1]; Example 2, 0.002% bupivacaine in both BOS-P lenses, at least 12 hours/day, over several weeks): resolved
- eye symptoms (corneal neuropathic pain [1]; Example 2, bupivacaine diluted to 0.0014% in BOS-P): resolved
- sub-anesthetic concentration (concentration that avoided any depression of corneal sensitivity) (corneal sensation; Example 1, Sjögren's syndrome patient, titration with drops every 2-5 minutes in left eye): 0.001%
- corneal sensation by Cochet-Bonnet aesthesiometry (corneal sensation; in vivo): remained intact
- fluorescein staining after lens removal (cornea [2]; in vivo): no significant fluorescein staining in either eye

SMILES: CCCOc1ccc(C(=O)OCCN(CC)CC)cc1N [Proparacaine, proparacaine]
- anesthetic effect, toxicity and safety (cornea [3]): non-anesthetic, non-toxic, and safe for at least one week of use

SMILES: COC[C@@H](NC(C)=O)C(=O)NCc1ccccc1 [lacosamide]
- corneal neuropathic pain (corneal neuropathic pain [1]; Example 4, 0.003% lacosamide in BOS-P, approximately 10 hours/day): significantly mitigated
- eye and co-morbid pain symptoms (corneal neuropathic pain [1]; Example 6, chronic graft versus host disease patient, lacosamide 0.05% in scleral lens reservoir): disappeared
- maximum concentration that avoided significant depression of corneal sensation (corneal sensation; Example 4, titration, fluid reservoir of BOS-P): 0.003%
- corneal sensation (corneal sensation; Example 5, eye drops 0.5% lacosamide, two patients and an eye of the inventor): did not depress corneal sensation
- effects on the corneas by slit lamp examination and confocal microscopy (cornea [2]; Example 4, 0.003% lacosamide in BOS-P): without any detrimental effects to the corneas
- duration of effect, one patient (corneal neuropathic pain [4]): over four hours
- duration of effect, the other patient (corneal neuropathic pain [4]): over two hours
- onset of pain resolution (corneal neuropathic pain [4]): almost immediately after administration
- corneal neuropathic pain (corneal neuropathic pain [4]; both patients): complete resolution of corneal neuropathic pain
